Patent publication US12187713B2, “Immunomodulators, compositions and methods thereof” (Betta Pharmaceuticals Co., Ltd, priority 2019, dated 2025)

Biological target: PD-1/PD-L1 (Homo sapiens (Human), UniProt Q9NZQ7)
Assay: PD-1/PD-L1 Binding Assay (Alphascreen)
Summary of the method: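 PD-1/PD-L1 binding detected by anti-6×His acceptor and streptavidin donor beads after 120 min in the dark at 25 °C. Beforehand, the two proteins were incubated 15 min at 25 °C with inhibitor at 0.015–300 nM (1% DMSO). IC50 comes from a log concentration–response curve.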

Chain of PD-1/PD-L1 (Q9NZQ7 19-238): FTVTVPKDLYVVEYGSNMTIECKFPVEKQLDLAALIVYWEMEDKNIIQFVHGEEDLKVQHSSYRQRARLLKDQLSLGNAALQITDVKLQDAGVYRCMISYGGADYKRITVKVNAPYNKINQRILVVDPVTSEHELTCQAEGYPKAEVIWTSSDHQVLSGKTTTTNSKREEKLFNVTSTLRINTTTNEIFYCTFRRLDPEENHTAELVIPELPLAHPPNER

| SMILES | IC50 (range symbols) | IC50 (numeric values) |
| --- | --- | --- |
| Cc1c(-c2nc3cc(CN4CCC[C@H]4C(=O)O)c(OC(F)F)cc3o2)cccc1-c1cccc(-c2nc3cc(CN4CCC(C)(F)C4)cc(C#N)c3o2)c1C (stereo partly drawn) [Example 167, ((2-(3′-(7-cyano-5-((3-fluoro-3-methylpyrrolidin-1-yl)methyl)benzo[d]oxazol-2-yl)-2,2′-dimethyl-[1,1′-biphenyl]-3-yl)-6-(difluoromethoxy)benzo[d]oxazol-5-yl)methyl)-L-proline] | 5 to 50 nM | – |
| Cc1c(-c2nc3cc(CN4CCC[C@H]4C(=O)O)c(OC(F)F)cc3o2)cccc1-c1cccc(-c2nc3cc(CNC4(C)COC4)cc(C#N)c3o2)c1C [Example 133, ((2-(3′-(7-cyano-5-(((3-methyloxetan-3-yl)amino)methyl)benzo[d]oxazol-2-yl)-2,2′-dimethyl-[1,1′-biphenyl]-3-yl)-6-(difluoromethoxy)benzo[d]oxazol-5-yl)methyl)-L-proline] | 0.1 to 5 nM | – |
| Cc1c(-c2nc3cc(CN4CC[C@H](C(=O)O)C4)c(OC(F)F)cc3o2)cccc1-c1cccc(-c2nc3cc(CN4CC(C)(C)C4)c(OC(F)F)cc3o2)c1C [Example 86, (S)-1-((6-(difluoromethoxy)-2-(3′-(6-(difluoromethoxy)-5-((3,3-dimethylazetidin-1-yl)methyl)benzo[d]oxazol-2-yl)-2,2′-dimethyl-[1,1′-biphenyl]-3-yl)benzo[d]oxazol-5-yl)methyl)pyrrolidine-3-carboxylic acid] | – | 11 nM |
| Cc1c(-c2nc3cc(CN4CCC[C@H]4C(=O)O)c(OC(F)F)cc3o2)cccc1-c1cccc(-c2nc3cc(CN4CC(N(C)C)C4)cc(C#N)c3o2)c1C [Example 134, ((2-(3′-(7-cyano-5-((3-(dimethylamino)azetidin-1-yl)methyl)benzo[d]oxazol-2-yl)-2,2′-dimethyl-[1,1′-biphenyl]-3-yl)-6-(difluoromethoxy)benzo[d]oxazol-5-yl)methyl)-L-proline] | 0.1 to 5 nM | – |
| Cc1c(-c2nc3cc(CNCCO)c(OCc4ccc(C#N)nc4)cc3o2)cccc1-c1cccc(-c2nc3cc(CN4CCC[C@H]4C(=O)O)c(OC(F)F)cc3o2)c1C [Example 119, ((2-(3′-(6-((6-cyanopyridin-3-yl)methoxy)-5-(((2-hydroxyethyl)amino)methyl)benzo[d]oxazol-2-yl)-2,2′-dimethyl-[1,1′-biphenyl]-3-yl)-6-(difluoromethoxy)benzo[d]oxazol-5-yl)methyl)-L-proline] | – | 1.9 nM |
| CNCc1cc2nc(-c3cccc(-c4cccc(-c5nc6cc(CN7CCC[C@H]7C(=O)O)c(OC(F)F)cc6o5)c4C)c3C)oc2cc1OCc1ccc(S(C)(=O)=O)cc1 [Example 125, ((6-(difluoromethoxy)-2-(2,2′-dimethyl-3′-(5-((methylamino)methyl)-6-((4-(methylsulfonyl)benzyl)oxy)benzo[d]oxazol-2-yl)-[1,1′-biphenyl]-3-yl)benzo[d]oxazol-5-yl)methyl)-L-proline] | 0.1 to 5 nM | – |
| Cc1c(-c2nc3cc(CN4CC5CC4C5)c(OC(F)F)cc3o2)cccc1-c1cccc(-c2nc3cc(CN4CCC[C@H]4C(=O)O)c(OC(F)F)cc3o2)c1C [Example 71, ((2-(3′-(5-((2-azabicyclo[2.1.1]hexan-2-yl)methyl)-6-(difluoromethoxy)benzo[d]oxazol-2-yl)-2,2′-dimethyl-[1,1′-biphenyl]-3-yl)-6-(difluoromethoxy)benzo[d]oxazol-5-yl)methyl)-L-proline] | – | 0.37 nM |
| Cc1c(-c2nc3cc(CN4CCC[C@H]4C(=O)O)c(OC(F)F)cc3o2)cccc1-c1cccc(-c2nc3ccc(CN4CC(C)(C)C4)cc3o2)c1Cl [Example 110, ((2-(2′-chloro-3′-(6-((3,3-dimethylazetidin-1-yl)methyl)benzo[d]oxazol-2-yl)-2-methyl-[1,1′-biphenyl]-3-yl)-6-(difluoromethoxy)benzo[d]oxazol-5-yl)methyl)-L-proline] | 0.1 to 5 nM | – |
| Cc1c(-c2nc3cc(CN4CCC[C@H]4C(=O)O)c(OC(F)F)cc3o2)cccc1-c1cccc(-c2nc3cc(CN4CC(C)C(C)C4)cc(C(F)(F)F)c3o2)c1C (stereo partly drawn) [Example 84, ((6-(difluoromethoxy)-2-(3′-(5-((3,4-dimethylpyrrolidin-1-yl)methyl)-7-(trifluoromethyl)benzo[d]oxazol-2-yl)-2,2′-dimethyl-[1,1′-biphenyl]-3-yl)benzo[d]oxazol-5-yl)methyl)-L-proline] | 0.1 to 5 nM | – |
| Cc1c(-c2nc3cc(CNCC4(CO)CC(F)(F)C4)c(OC(F)F)cc3o2)cccc1-c1cccc(-c2nc3cc(CN4CCC[C@H]4C(=O)O)c(OC(F)F)cc3o2)c1C [Example 73, ((2-(3′-(5-((((3,3-difluoro-1-(hydroxymethyl)cyclobutyl)methyl)amino)methyl)-6-(difluoromethoxy)benzo[d]oxazol-2-yl)-2,2′-dimethyl-[1,1′-biphenyl]-3-yl)-6-(difluoromethoxy)benzo[d]oxazol-5-yl)methyl)-L-proline] | – | 0.42 nM |
| Cc1c(-c2nc3cc(CN4CCC[C@H]4C(=O)O)c(OC(F)F)cc3o2)cccc1-c1cccc(-c2nc3cc(CN4CC(C)C(N(C)C)C4)cc(C#N)c3o2)c1C (stereo partly drawn) [Example 158, ((2-(3′-(7-cyano-5-((3-(dimethylamino)-4-methylpyrrolidin-1-yl)methyl)benzo[d]oxazol-2-yl)-2,2′-dimethyl-[1,1′-biphenyl]-3-yl)-6-(difluoromethoxy)benzo[d]oxazol-5-yl)methyl)-L-proline] | 0.1 to 5 nM | – |

More lines, now with the values ahead:

| IC50 (range symbols) | IC50 (numeric values) | SMILES |
| --- | --- | --- |
| 0.1 to 5 nM | – | Cc1c(COc2cc(OCc3cccc(C#N)c3)c(CN3CCC[C@H]3C(=O)O)cc2Cl)cccc1-c1cccc(-c2nc3cc(CN4CCC[C@H]4C(=O)O)c(OC(F)F)cc3o2)c1C [Example 211] |
| 0.1 to 5 nM | – | Cc1c(-c2nc3c(o2)CCN(CCS(C)(=O)=O)C3)cccc1-c1cccc(-c2nc3cc(CN4CCC[C@H]4C(=O)O)c(OC(F)F)cc3o2)c1C [Example 185, ((6-(difluoromethoxy)-2-(2,2′-dimethyl-3′-(5-(2-(methylsulfonyl)ethyl)-4,5,6,7-tetrahydrooxazolo[4,5-c]pyridin-2-yl)-[1,1′-biphenyl]-3-yl)benzo[d]oxazol-5-yl)methyl)-L-proline] |
| 0.1 to 5 nM | – | C=Cc1cc(-c2cccc(-c3cccc(-c4nc5cc(CN6CCC[C@H]6C(=O)O)c(OC(F)F)cc5o4)c3C)c2C)ncc1CN1CCCC1 [Example 274, ((6-(difluoromethoxy)-2-(2,2′-dimethyl-3′-(5-(pyrrolidin-1-ylmethyl)-4-vinylpyridin-2-yl)-[1,1′-biphenyl]-3-yl)benzo[d]oxazol-5-yl)methyl)-L-proline] |
| – | 4.3 nM | Cc1c(-c2ccc(CN3CCC(N(C)C)C3)cc2)cccc1-c1cccc(-c2nc3cc(CN4CCC[C@H]4C(=O)O)c(OC(F)F)cc3o2)c1C (stereo partly drawn) [Example 228, ((6-(difluoromethoxy)-2-(4″-((3-(dimethylamino)pyrrolidin-1-yl)methyl)-2,2′-dimethyl-[1,1′:3′,1″-terphenyl]-3-yl)benzo[d]oxazol-5-yl)methyl)-L-proline] |
| – | 0.52 nM | Cc1cc(-c2cccc(-c3cccc(-c4nc5cc(CN6CCC[C@H]6C(=O)O)c(OC(F)F)cc5o4)c3C)c2C)cc(C)c1CN1CCCC1 [Example 234, ((6-(difluoromethoxy)-2-(2,2′,3″,5″-tetramethyl-4″-(pyrrolidin-1-ylmethyl)-[1,1′:3′,1″- terphenyl]-3-yl)benzo[d]oxazol-5-yl)methyl)-L-proline] |
| 5 to 50 nM | – | Cc1c(-c2nc3c(o2)CCN(CC(N)=O)C3)cccc1-c1cccc(-c2nc3cc(CN4CCC[C@H]4C(=O)O)c(OC(F)F)cc3o2)c1C [Example 196, ((2-(3′-(5-(2-amino-2-oxoethyl)-4,5,6,7-tetrahydrooxazolo[4,5-c]pyridin-2-yl)-2,2′-dimethyl-[1,1′-biphenyl]-3-yl)-6-(difluoromethoxy)benzo[d]oxazol-5-yl)methyl)proline] |
| 0.1 to 5 nM | – | Cc1c(-c2nc3cc(CN4CCC[C@H]4C(=O)O)c(OC(F)F)cc3o2)cccc1-c1cccc(-c2cnc(CN3CCCC3)c(F)c2)c1C(F)F [Example 268, ((6-(difluoromethoxy)-2-(2′-(difluoromethyl)-3′-(5-fluoro-6-(pyrrolidin-1-ylmethyl)pyridin-3-yl)-2-methyl-[1,1′-biphenyl]-3-yl)benzo[d]oxazol-5-yl)methyl)-L-proline] |
| 0.1 to 5 nM | – | Cc1c(Nc2nccc3cc(CNCC4CCC(=O)N4)cnc23)cccc1-c1cccc(-c2nc3cc(CN4CCC[C@H]4C(=O)O)c(OC(F)F)cc3o2)c1C (some centres unmarked) [Example 179, ((6-(difluoromethoxy)-2-(2,2′-dimethyl-3′-((3-((((5-oxopyrrolidin-2-yl)methyl)amino)methyl)-1,7-naphthyridin-8-yl)amino)-[1,1′-biphenyl]-3-yl)benzo[d]oxazol-5-yl)methyl)proline] |
| 5 to 50 nM | – | Cc1c(-c2nc3cc(CN4CCCC4)cc(C(F)(F)F)c3[nH]2)cccc1-c1cccc(-c2nc3cc(CN4CCC[C@H]4C(=O)O)c(OC(F)F)cc3o2)c1C [Example 301, ((6-(difluoromethoxy)-2-(2,2′-dimethyl-3′-(5-(pyrrolidin-1-ylmethyl)-7-(trifluoromethyl)-1H-benzo[d]imidazol-2-yl)-[1,1′-biphenyl]-3-yl)benzo[d]oxazol-5-yl)methyl)-L-proline] |
| – | 0.67 nM | Cc1c(-c2ccc(CNCCO)cc2)cccc1-c1cccc(-c2nc3cc(CN4CCC[C@H]4C(=O)O)c(OC(F)F)cc3o2)c1C [Example 217, ((6-(difluoromethoxy)-2-(4″-(((2-hydroxyethyl)amino)methyl)-2,2′-dimethyl-[1,1′:3′,1″-terphenyl]-3-yl)benzo[d]oxazol-5-yl)methyl)-L-proline] |
| – | 1.5 nM | Cc1c(-c2nc3cc(CN4CCC[C@H]4C(=O)O)c(OC(F)F)cc3o2)cccc1-c1cccc(N2CCC(N3CCCC3)CC2)c1C [Example 306, ((6-(difluoromethoxy)-2-(2,2′-dimethyl-3′-(4-(pyrrolidin-1-yl)piperidin-1-yl)-[1,1′-biphenyl]-3-yl)benzo[d]oxazol-5-yl)methyl)-L-proline] |
| > 50 nM | – | Cc1c(Oc2ccc(CNC[C@@H]3CCC(=O)N3)cn2)cccc1-c1cccc(-c2nc3cc(CN4CCC[C@H]4C(=O)O)c(OC(F)F)cc3o2)c1C [Example 214, ((6-(difluoromethoxy)-2-(2,2′-dimethyl-3′-((5-(((((S)-5-oxopyrrolidin-2-yl)methyl)amino)methyl)pyridin-2-yl)oxy)-[1,1′-biphenyl]-3-yl)benzo[d]oxazol-5-yl)methyl)-L-proline] |
